Patent US12552767B2, “3-heteroaryl pyrrolidine and piperidine orexin receptor agonists” (Merck Sharp & Dohme LLC, priority 2020, dated 2026)

Molecular target: T1, human OX2R (Homo sapiens, UniProt O43614)
T1 construct: expressed in transfected cells; host or cells: CHO (Chinese hamster ovary) cells, grown under G418 selection
T1 sequence (O43614 1-444): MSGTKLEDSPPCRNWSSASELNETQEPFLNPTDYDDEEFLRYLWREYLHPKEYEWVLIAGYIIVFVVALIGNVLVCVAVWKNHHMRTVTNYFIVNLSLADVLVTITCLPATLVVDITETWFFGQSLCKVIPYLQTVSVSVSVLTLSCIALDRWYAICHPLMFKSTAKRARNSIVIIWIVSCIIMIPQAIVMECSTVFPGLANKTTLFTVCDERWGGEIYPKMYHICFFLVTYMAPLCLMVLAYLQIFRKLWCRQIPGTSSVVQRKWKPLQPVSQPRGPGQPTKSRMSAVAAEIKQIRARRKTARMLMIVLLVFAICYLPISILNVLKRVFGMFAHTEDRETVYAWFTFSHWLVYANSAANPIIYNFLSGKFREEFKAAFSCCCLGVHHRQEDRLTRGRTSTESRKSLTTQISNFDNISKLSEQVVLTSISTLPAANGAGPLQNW
Assay: IP-One (IPOne) orexin receptor agonist assay in CHO cells expressing human OX2R
Format: cell-based
Settings: for EC50: CHO cells expressing human OX2R, IP-One IP-1 detection, 2 hours incubation, four parameter logistic fit, read-out: OX2R Potency, EC50; for % of reference agonist maximal effect: human OX2R, percentage of sample raw value/mean max effect (reference compound at 1 uM with 100% activity)
Method in brief: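 CHO cells stably expressing human OX2R were stimulated with compound (10-point ½-log dilutions) for 2 h at 37 °C. IP-1 accumulation was read by HTRF (IP-One, 665/620 nm). EC50 from a four-parameter fit; % effect relative to 1 μM reference agonist control.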

EC50 | % of reference agonist maximal effect | SMILES
944 nM | 100% | COCC(C)NC(=O)N1CCC[C@H](c2cc[nH]n2)[C@@H]1CO[C@H]1CC[C@@H](c2ccccc2)CC1 (relative stereo) [Example 126, (CIS)-N-(1-methoxypropan-2-yl)-2-((((CIS)-4-phenylcyclohexyl)oxy)methyl)-3-(1H-pyrazol-3-yl)piperidine-1-carboxamide]
4380 nM | 72% | O=C(NC1COC1)N1CCC[C@H](c2cc[nH]n2)[C@@H]1CO[C@H]1CC[C@@H](c2ccccc2)CC1 (relative stereo) [Example 127, (CIS)-N-(oxetan-3-yl)-2-((((CIS)-4-phenylcyclohexyl)oxy)methyl)-3-(1H-pyrazol-3-yl)piperidine-1-carboxamide]
67.3 nM | 102.6% | CCNC(=O)N1CCC[C@H](c2ccn[nH]2)[C@@H]1CO[C@H]1CC[C@@H](c2ccccc2)CC1 (single isomer, unassigned) [Example 1, (CIS)-N-ethyl-2-((((CIS)-4-phenylcyclohexyl)oxy)methyl)-3-(1H-pyrazol-5-yl)piperidine-1-carboxamide]
276 nM | 100.6% | CCNC(=O)N1CCC[C@H](c2ccn[nH]2)[C@@H]1CO[C@H]1CC[C@@H](C(C)C)CC1 (single isomer, unassigned) [Example 4]
3190 nM | 99.6% | CCNC(=O)N1CCC[C@@H](c2ccn[nH]2)[C@H]1CO[C@H]1CC[C@@H](C(C)C)CC1 (single isomer, unassigned) [Example 5]
2.3 nM | 100.1% | CCNC(=O)N1CCC[C@H](c2n[nH]cc2C)[C@@H]1CO[C@H]1CC[C@@H](c2cccc(F)c2)CC1 (single isomer, unassigned) [Example 11]
414 nM | 100.0% | CCNC(=O)N1CCC[C@@H](c2n[nH]cc2C)[C@H]1CO[C@H]1CC[C@@H](c2cccc(F)c2)CC1 (single isomer, unassigned) [Example 12]
54.7 nM | 98.8% | CCNC(=O)N1CCC[C@H](c2cc[nH]n2)[C@@H]1CO[C@H]1CC[C@@H](c2ccccc2)CC1 (single isomer, unassigned) [Example 18, (CIS)-N-ethyl-2-((((CIS)-4-phenylcyclohexyl)oxy)methyl)-3-(1H-pyrazol-3-yl)piperidine-1-carboxamide]
682 nM | 97.4% | O=C(C1CC1)N1CCC[C@H](c2cc[nH]n2)[C@@H]1CO[C@H]1CC[C@@H](c2ccccc2)CC1 (single isomer, unassigned) [Example 20, cyclopropyl((CIS)-2-((((CIS)-4-phenylcyclohexyl)oxy)methyl)-3-(1H-pyrazol-3-yl)piperidin-1-yl)methanone]
163 nM | 100.4% | CCc1c[nH]nc1[C@H]1CCCN(C(=O)OC)[C@H]1CO[C@H]1CC[C@@H](c2ccccc2)CC1 (single isomer, unassigned) [Example 43]
79.4 nM | 100.2% | COC(=O)N1CCC[C@H](c2n[nH]cc2Cl)[C@@H]1CO[C@H]1CC[C@@H](c2ccccc2)CC1 (single isomer, unassigned) [Example 45]
> 10000 nM | 0% | COC(=O)N1CCC[C@@H](c2n[nH]cc2Cl)[C@H]1CO[C@H]1CC[C@@H](c2ccccc2)CC1 (single isomer, unassigned) [Example 46]
795 nM | 99.0% | COC(=O)N1CCC[C@H](c2n[nH]cc2C(C)C)[C@@H]1CO[C@H]1CC[C@@H](c2ccccc2)CC1 (single isomer, unassigned) [Example 49]
> 10000 nM | 5.2% | COC(=O)N1CCC[C@@H](c2n[nH]cc2C(C)C)[C@H]1CO[C@H]1CC[C@@H](c2ccccc2)CC1 (single isomer, unassigned) [Example 50]
227 nM | 99.0% | COC(=O)N1CCC[C@H](c2n[nH]cc2C#N)[C@@H]1CO[C@H]1CC[C@@H](c2ccccc2)CC1 (single isomer, unassigned) [Example 51]
> 10000 nM | 0% | COC(=O)N1CCC[C@@H](c2n[nH]cc2C#N)[C@H]1CO[C@H]1CC[C@@H](c2ccccc2)CC1 (single isomer, unassigned) [Example 52]
> 10000 nM | 15.7% | COC(=O)N1CCC[C@@H](c2n[nH]cc2CO)[C@H]1CO[C@H]1CC[C@@H](c2ccccc2)CC1 (single isomer, unassigned) [Example 54]
97.5 nM | 100.8% | COC(=O)N1CCC[C@H](c2n[nH]cc2C(F)F)[C@@H]1CO[C@H]1CC[C@@H](c2ccccc2)CC1 (single isomer, unassigned) [Example 55]
> 10000 nM | 0% | CCNC(=O)N1CCCC(c2[nH]ncc2C)C1COC1CCC(C(C)C)CC1 (single isomer, unassigned) [Example 58, N-ethyl-2-(((4-isopropylcyclohexyl)oxy)methyl)-3-(4-methyl-1H-pyrazol-5-yl)piperidine-1-carboxamide]
593 nM | 98.3% | CCNC(=O)N1CCCC(c2[nH]ncc2C)C1COC1CCC(C(C)C)CC1 (single isomer, unassigned) [Example 59, N-ethyl-2-(((4-isopropylcyclohexyl)oxy)methyl)-3-(4-methyl-1H-pyrazol-5-yl)piperidine-1-carboxamide]
56.3 nM | 100% | CCNC(=O)N1CCCC(c2[nH]ncc2C)C1COC1CCC(C(C)C)CC1 (single isomer, unassigned) [Example 60, N-ethyl-2-(((4-isopropylcyclohexyl)oxy)methyl)-3-(4-methyl-1H-pyrazol-5-yl)piperidine-1-carboxamide]
3510 nM | 87.4% | CCNC(=O)N1CCCC(c2[nH]ncc2C)C1COC1CCC(C(C)C)CC1 (single isomer, unassigned) [Example 61, N-ethyl-2-(((4-isopropylcyclohexyl)oxy)methyl)-3-(4-methyl-1H-pyrazol-5-yl)piperidine-1-carboxamide]
> 10000 nM | 11.9% | CCNC(=O)N1CCCC(c2nc[nH]n2)C1CO[C@H]1CC[C@@H](C(C)C)CC1 (single isomer, unassigned) [Example 62, N-ethyl-2-((((CIS)-4-isopropylcyclohexyl)oxy)methyl)-3-(1H-1,2,4-triazol-3-yl)piperidine-1-carboxamide]
334 nM | 100.2% | CCNC(=O)N1CCCC(c2nc[nH]n2)C1CO[C@H]1CC[C@@H](C(C)C)CC1 (single isomer, unassigned) [Example 63, N-ethyl-2-((((CIS)-4-isopropylcyclohexyl)oxy)methyl)-3-(1H-1,2,4-triazol-3-yl)piperidine-1-carboxamide]
227 nM | 99.9% | COC(=O)N1CCCC(c2nc(O)sc2Cl)C1COC1CCC(c2ccccc2)CC1 (single isomer, unassigned) [Example 67, Methyl 3-(5-chloro-2-hydroxythiazol-4-yl)-2-(((4-phenylcyclohexyl)oxy)methyl)piperidine-1-carboxylate]
6980 nM | 27.6% | COC(=O)N1CCCC(c2nc(O)sc2Cl)C1COC1CCC(c2ccccc2)CC1 (single isomer, unassigned) [Example 68, Methyl 3-(5-chloro-2-hydroxythiazol-4-yl)-2-(((4-phenylcyclohexyl)oxy)methyl)piperidine-1-carboxylate]
457 nM | 82.9% | O=C(C1CC1)N1CCC[C@H](c2cc[nH]n2)[C@@H]1CO[C@H]1CC[C@@H](c2ccccc2)CC1 (single isomer, unassigned) [Example 71, cyclopropyl((CIS)-2-((((CIS)-4-phenylcyclohexyl)oxy)methyl)-3-(1H-pyrazol-3-yl)piperidin-1-yl)methanone]
1140 nM | 90.7% | CC[C@H]1C[C@@H]1C(=O)N1CCC[C@H](c2cc[nH]n2)[C@@H]1COC1CCC(c2ccccc2)CC1 (stereo in doubt) [Example 90, 5-((CIS)-1-((TRANS)-2-ethylcyclopropane-1-carbonyl)-2-((((CIS)-4-phenylcyclohexyl)oxy)methyl)piperidin-3-yl)-1H-pyrazol-2-ium 2,2,2-trifluoroacetate]
4750 nM | 84.6% | COC(=O)N1CCC[C@H](c2n[nH]cc2C)[C@@H]1COC1CC=C(c2cccc(F)c2)CC1 (stereo partly drawn) [Example 13, methyl (CIS)-2-((((S)-3′-fluoro-2,3,4,5-tetrahydro-[1,1′-biphenyl]-4-yl)oxy)methyl)-3-(4-methyl-1H-pyrazol-3-yl)piperidine-1-carboxylate]
